Patent publication US20240270762A1, “PENICILLIN-BINDING PROTEIN INHIBITORS” (priority 2021, published 2024)
In brackets after ≈: the same amount, converted by molar mass.

Experiments:
P. aeruginosa CDC-0054 = assay: microbe, parasite or virus in culture; type: cell-based; details: Pseudomonas aeruginosa, CDC0054, read-out: Minimum inhibitory concentration, P. aeruginosa CDC-0054
A. baumannii CDC-0033 = assay: microbe, parasite or virus in culture; type: cell-based; details: Acinetobacter baumannii, CDC0033, read-out: MIC, A. baumannii CDC-0033
[1] = tested on: P. aeruginosa (ΔmexAB-oprM); assay: Broth microdilution MIC in iron-depleted CAMHB (IDM); type: cell-based; details: Pseudomonas aeruginosa; iron-depleted CAMHB (IDM); […]; read-out: Minimum inhibitory concentration, P. aeruginosa ΔmexAB-oprM
P. aeruginosa CDC-0110 = assay: microbe, parasite or virus in culture; type: cell-based; details: Pseudomonas aeruginosa, CDC0110, read-out: Minimum inhibitory concentration, P. aeruginosa CDC-0110
[2] = tested on: B. thailandensis ATCC 700388; assay: microbe, parasite or virus in culture; type: cell-based; details: Burkholderia thailandensis, ATCC700388, read-out: Minimum inhibitory concentration (MIC), B. thailandensis ATCC 700388
[3] = tested on: B. humptydooensis ATCC BAA-2767; assay: microbe, parasite or virus in culture; type: cell-based; details: Burkholderia humptydooensis, ATCCBAA2767, read-out: Minimum inhibitory concentration (MIC), B. humptydooensis ATCC BAA-2767
P. aeruginosa CDC-0090 = assay: microbe, parasite or virus in culture; type: cell-based; details: Pseudomonas aeruginosa, CDC0090, read-out: Minimum inhibitory concentration, P. aeruginosa CDC-0090
A. baumannii CDC-0045 = assay: microbe, parasite or virus in culture; type: cell-based; details: Acinetobacter baumannii, CDC0045, read-out: MIC, A. baumannii CDC-0045
A. baumannii 1258916 = assay: microbe, parasite or virus in culture; type: cell-based, Acinetobacter baumannii; details: Acinetobacter baumannii, 1258916, read-out: MIC, A. baumannii 1258916
A. baumannii ATCC 17978 = assay: microbe, parasite or virus in culture; type: cell-based; details: Acinetobacter baumannii, ATCC17978, read-out: MIC, A. baumannii ATCC 17978
A. baumannii ATCC 19606 = assay: microbe, parasite or virus in culture; type: cell-based; details: Acinetobacter baumannii, ATCC19606, read-out: MIC, A. baumannii ATCC 19606
A. baumannii PBP1a = target: T1, A. baumannii PBP1a (Acinetobacter baumannii, UniProt A0ABX6CK30); assay: Bocillin-FL competition binding via gel filtration, A. baumannii PBP1a; details: competition binding assay using Bocillin-FL via gel filtration; read-out: A. baumannii PBP1a Potency
T1 sequence (A0ABX6CK30 1-851): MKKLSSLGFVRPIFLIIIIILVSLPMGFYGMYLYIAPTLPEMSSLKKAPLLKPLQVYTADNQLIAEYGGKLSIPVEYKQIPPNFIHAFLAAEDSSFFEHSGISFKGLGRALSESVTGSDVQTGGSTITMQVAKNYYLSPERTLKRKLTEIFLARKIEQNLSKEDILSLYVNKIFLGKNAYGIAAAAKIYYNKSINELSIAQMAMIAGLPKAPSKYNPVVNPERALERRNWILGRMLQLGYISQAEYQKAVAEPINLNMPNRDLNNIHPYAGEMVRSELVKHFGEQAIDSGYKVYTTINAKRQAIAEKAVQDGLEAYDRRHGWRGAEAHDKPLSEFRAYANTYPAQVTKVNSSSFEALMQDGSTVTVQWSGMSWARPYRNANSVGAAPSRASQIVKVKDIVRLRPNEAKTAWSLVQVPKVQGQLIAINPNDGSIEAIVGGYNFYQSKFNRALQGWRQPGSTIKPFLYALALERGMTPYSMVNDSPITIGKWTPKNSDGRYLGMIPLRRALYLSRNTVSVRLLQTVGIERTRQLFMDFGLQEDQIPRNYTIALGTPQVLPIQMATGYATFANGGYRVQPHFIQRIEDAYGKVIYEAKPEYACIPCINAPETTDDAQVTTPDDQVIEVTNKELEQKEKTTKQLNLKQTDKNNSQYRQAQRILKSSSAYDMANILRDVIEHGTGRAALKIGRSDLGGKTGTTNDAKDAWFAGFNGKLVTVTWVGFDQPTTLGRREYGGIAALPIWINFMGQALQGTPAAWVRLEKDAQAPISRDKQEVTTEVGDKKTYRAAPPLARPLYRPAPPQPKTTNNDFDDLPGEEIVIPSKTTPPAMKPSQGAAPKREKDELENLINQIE
Method in brief: (§1)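 Enzyme was pre-incubated with rising inhibitor concentrations, then Bocillin-FL was added and incubated 15 minutes more. Bound probe was separated by gel filtration and fluorescence read. EC50 came from fitting fraction of PBP labelled versus inhibitor concentration to a Hill equation with ymin, ymax and n.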

P. aeruginosa CDC-0095 = assay: microbe, parasite or virus in culture; type: cell-based; details: Pseudomonas aeruginosa, CDC0095, read-out: Minimum inhibitory concentration, P. aeruginosa CDC-0095
P. aeruginosa ATCC 35151 = assay: microbe, parasite or virus in culture; type: cell-based; details: Pseudomonas aeruginosa, ATCC35151, read-out: Minimum inhibitory concentration, P. aeruginosa ATCC 35151
A. baumannii CDC-0083 = assay: microbe, parasite or virus in culture; type: cell-based; details: Acinetobacter baumannii, CDC0083, read-out: MIC, A. baumannii CDC-0083
A. baumannii PBP2 = A. baumannii PBP2 (Acinetobacter baumannii, UniProt D0C8Z9); assay: Bocillin-FL competition binding via gel filtration, A. baumannii PBP2
Method in brief: as §1

A. baumannii PBP2, sequence (D0C8Z9 whole entry): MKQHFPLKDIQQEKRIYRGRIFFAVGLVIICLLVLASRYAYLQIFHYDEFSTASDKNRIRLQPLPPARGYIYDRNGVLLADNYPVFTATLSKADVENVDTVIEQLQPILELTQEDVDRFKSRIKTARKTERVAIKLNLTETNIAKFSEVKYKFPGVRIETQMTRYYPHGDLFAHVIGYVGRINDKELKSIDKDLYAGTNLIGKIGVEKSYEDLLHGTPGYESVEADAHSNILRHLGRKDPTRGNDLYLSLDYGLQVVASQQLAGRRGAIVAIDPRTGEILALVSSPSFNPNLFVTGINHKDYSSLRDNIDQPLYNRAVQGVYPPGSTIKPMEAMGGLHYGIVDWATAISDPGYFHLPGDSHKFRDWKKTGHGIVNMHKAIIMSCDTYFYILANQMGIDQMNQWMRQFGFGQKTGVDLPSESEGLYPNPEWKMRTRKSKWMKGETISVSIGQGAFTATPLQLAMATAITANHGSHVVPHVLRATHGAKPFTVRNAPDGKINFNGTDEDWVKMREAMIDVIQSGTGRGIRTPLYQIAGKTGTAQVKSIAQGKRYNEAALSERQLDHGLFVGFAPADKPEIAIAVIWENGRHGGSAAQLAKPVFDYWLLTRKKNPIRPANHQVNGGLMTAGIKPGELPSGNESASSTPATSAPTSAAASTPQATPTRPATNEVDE

Compound	MIC (P. aeruginosa CDC-0054) [µg/mL]	MIC (A. baumannii CDC-0033) [µg/mL]	MIC [1] [µg/mL]	MIC (P. aeruginosa CDC-0110) [µg/mL]	MIC [2] [µg/mL]	MIC [3] [µg/mL]	MIC (P. aeruginosa CDC-0090) [µg/mL]	MIC (A. baumannii CDC-0045) [µg/mL]	MIC (A. baumannii 1258916) [µg/mL]	MIC (A. baumannii ATCC 17978) [µg/mL]	MIC (A. baumannii ATCC 19606) [µg/mL]	EC50 (A. baumannii PBP1a) [µM]	MIC (P. aeruginosa CDC-0095) [µg/mL]	MIC (P. aeruginosa ATCC 35151) [µg/mL]	MIC (A. baumannii CDC-0083) [µg/mL]	EC50 (A. baumannii PBP2) [µM]
O=C(NCCCN1CCN(C(=O)NC(C(=O)N[C@H]2Cc3ccc(F)c(C(=O)O)c3OB2O)c2cc(F)c(O)c(O)c2Cl)C(=O)C1=O)c1ccc(O)c(F)c1 (stereo partly drawn) [Example 304, (3R)-3-(2-(2-chloro-5-fluoro-3,4-dihydroxyphenyl)-2-(4-(3-(3-fluoro-4-hydroxybenzamido)propyl)-2,3-dioxopiperazine-1-carboxamido)acetamido)-7-fluoro-2-hydroxy-3,4-dihydro-2H-benzo[e][1,2]oxaborinine-8-carboxylic acid]	2 to 4 (≈ 2.57 to 5.14 µM)	2 to 4 (≈ 2.57 to 5.14 µM)	< 1	< 1	2 to 4 (≈ 2.57 to 5.14 µM)	2 to 4 (≈ 2.57 to 5.14 µM)	< 1	< 1	< 1	< 1	< 1	< 10	< 1	< 1	< 1	–
Cc1cc(C(=O)NCCCN2CCN(C(=O)NC(C(=O)N[C@H]3Cc4ccc(F)c(C(=O)O)c4OB3O)c3cc(F)c(O)c(O)c3Cl)C(=O)C2=O)c(F)cn1 (stereo partly drawn) [Example 301, (3R)-3-(2-(2-chloro-5-fluoro-3,4-dihydroxyphenyl)-2-(4-(3-(5-fluoro-2-methylisonicotinamido)propyl)-2,3-dioxopiperazine-1-carboxamido)acetamido)-7-fluoro-2-hydroxy-3,4-dihydro-2H-benzo[e][1,2]oxaborinine-8-carboxylic acid]	< 1	2 to 4 (≈ 2.57 to 5.15 µM)	< 1	< 1	2 to 4 (≈ 2.57 to 5.15 µM)	2 to 4 (≈ 2.57 to 5.15 µM)	< 1	< 1	< 1	< 1	< 1	10 to 50	< 1	< 1	< 1	–
O=C(NCCCS(=O)(=O)N1CCN(C(=O)NC(C(=O)N[C@H]2Cc3ccc(F)c(C(=O)O)c3OB2O)c2cc(F)c(O)c(O)c2Cl)C1=O)Nc1cccnc1 (stereo partly drawn) [Example 278, (3R)-3-(2-(2-chloro-5-fluoro-3,4-dihydroxyphenyl)-2-(2-oxo-3-((3-(3-(pyridin-3-yl)ureido)propyl)sulfonyl)imidazolidine-1-carboxamido)acetamido)-7-fluoro-2-hydroxy-3,4-dihydro-2H-benzo[e][1,2]oxaborinine-8-carboxylic acid]	2 to 4 (≈ 2.51 to 5.03 µM)	8 to 16 (≈ 10.1 to 20.1 µM)	< 1	2 to 4 (≈ 2.51 to 5.03 µM)	2 to 4 (≈ 2.51 to 5.03 µM)	2 to 4 (≈ 2.51 to 5.03 µM)	2 to 4 (≈ 2.51 to 5.03 µM)	< 1	< 1	< 1	< 1	10 to 50	8 to 16 (≈ 10.1 to 20.1 µM)	< 1	< 1	–
O=C(NCCS(=O)(=O)N1CCN(C(=O)N[C@@H](C(=O)N[C@H]2Cc3ccc(F)c(C(=O)O)c3OB2O)c2cc(F)c(O)c(O)c2Cl)C1=O)Nc1ccncc1 [Example 290, (R)-3-((R)-2-(2-chloro-5-fluoro-3,4-dihydroxyphenyl)-2-(2-oxo-3-((2-(3-(pyridin-4-yl)ureido)ethyl)sulfonyl)imidazolidine-1-carboxamido)acetamido)-7-fluoro-2-hydroxy-3,4-dihydro-2H-benzo[e][1,2]oxaborinine-8-carboxylic acid]	2 to 4 (≈ 2.56 to 5.12 µM)	2 to 4 (≈ 2.56 to 5.12 µM)	< 1	< 1	2 to 4 (≈ 2.56 to 5.12 µM)	< 1	2 to 4 (≈ 2.56 to 5.12 µM)	< 1	< 1	< 1	< 1	–	2 to 4 (≈ 2.56 to 5.12 µM)	< 1	< 1	< 10
O=C(NCCCN1CCN(C(=O)NC(C(=O)N[C@H]2Cc3ccc(F)c(C(=O)O)c3OB2O)c2cc(F)c(O)c(O)c2Cl)C(=O)C1=O)c1ccnc(F)c1 (stereo partly drawn) [Example 466, (3R)-3-(2-(2-chloro-5-fluoro-3,4-dihydroxyphenyl)-2-(4-(3-(2-fluoroisonicotinamido)propyl)-2,3-dioxopiperazine-1-carboxamido)acetamido)-7-fluoro-2-hydroxy-3,4-dihydro-2H-benzo[e][1,2]oxaborinine-8-carboxylic acid]	< 1	2 to 4 (≈ 2.62 to 5.24 µM)	< 1	< 1	2 to 4 (≈ 2.62 to 5.24 µM)	8 to 16 (≈ 10.5 to 21 µM)	2 to 4 (≈ 2.62 to 5.24 µM)	2 to 4 (≈ 2.62 to 5.24 µM)	2 to 4 (≈ 2.62 to 5.24 µM)	< 1	< 1	–	2 to 4 (≈ 2.62 to 5.24 µM)	< 1	2 to 4 (≈ 2.62 to 5.24 µM)	10 to 50
O=C(NCCCN1CCN(C(=O)N[C@@H](C(=O)N[C@H]2Cc3ccc(F)c(C(=O)O)c3OB2O)c2cc(F)c(O)c(O)c2Cl)C(=O)C1=O)c1cccc(O)c1Cl [Example 303, (R)-3-((R)-2-(4-(3-(2-chloro-3-hydroxybenzamido)propyl)-2,3-dioxopiperazine-1-carboxamido)-2-(2-chloro-5-fluoro-3,4-dihydroxyphenyl)acetamido)-7-fluoro-2-hydroxy-3,4-dihydro-2H-benzo[e][1,2]oxaborinine-8-carboxylic acid]	< 1	2 to 4 (≈ 2.52 to 5.04 µM)	< 1	< 1	< 1	< 1	< 1	< 1	< 1	< 1	< 1	< 10	< 1	< 1	< 1	–
O=C(NCCCN1CCN(C(=O)NC(C(=O)N[C@H]2Cc3ccc(F)c(C(=O)O)c3OB2O)c2cc(F)c(O)c(O)c2Cl)C(=O)C1=O)c1ccc(F)c(O)c1Cl (stereo partly drawn) [Example 412, (3R)-3-(2-(4-(3-(2-chloro-4-fluoro-3-hydroxybenzamido)propyl)-2,3-dioxopiperazine-1-carboxamido)-2-(2-chloro-5-fluoro-3,4-dihydroxyphenyl)acetamido)-7-fluoro-2-hydroxy-3,4-dihydro-2H-benzo[e][1,2]oxaborinine-8-carboxylic acid]	< 1	8 to 16 (≈ 9.85 to 19.7 µM)	–	< 1	2 to 4 (≈ 2.46 to 4.92 µM)	2 to 4 (≈ 2.46 to 4.92 µM)	2 to 4 (≈ 2.46 to 4.92 µM)	2 to 4 (≈ 2.46 to 4.92 µM)	2 to 4 (≈ 2.46 to 4.92 µM)	< 1	< 1	< 10	2 to 4 (≈ 2.46 to 4.92 µM)	< 1	8 to 16 (≈ 9.85 to 19.7 µM)	< 10
